The results in this text go back to patent US8362000B2, “Azetidinyl diamides as monoacylglycerol lipase inhibitors” (Janssen Pharmaceutica NV, priority 2009, dated 2013).

In assay [1] the target is T1, purified wild type MGL (wt-MGLL 6H-11-313) (Homo sapiens, UniProt Q99685).
T1 sequence (Q99685 1-303): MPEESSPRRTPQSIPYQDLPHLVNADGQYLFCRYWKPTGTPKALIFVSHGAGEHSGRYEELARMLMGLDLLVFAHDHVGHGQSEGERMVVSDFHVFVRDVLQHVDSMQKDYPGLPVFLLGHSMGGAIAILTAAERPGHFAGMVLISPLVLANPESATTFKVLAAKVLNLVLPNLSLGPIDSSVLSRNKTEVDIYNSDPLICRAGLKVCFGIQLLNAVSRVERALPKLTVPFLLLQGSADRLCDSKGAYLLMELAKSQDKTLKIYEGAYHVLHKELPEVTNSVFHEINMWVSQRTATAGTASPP

The target of the next assay is T2, mutant MGL (Homo sapiens, UniProt Q99685, L169S/L176S).
T2 sequence (Q99685 1-303 L169S/L176S): T1 sequence (Q99685 1-303) with L169S, L176S
Briefly: MGL ThermoFluor assay - mutant. Format: binding. Background: DSF heats the sample and reads unfolding from a dye or from intrinsic fluorescence.

Where [2] appears, read: ThermoFluor thermal stability binding assay, read-out: MGL mutant ThermoFluor Kd.
The mark [3] stands for this setting: ThermoFluor, compound concentration measured by qNMR, read-out: MGL mutant ThermoFluor qKd (using qNMR conc.).
Where [4] appears, read: compound concentration measured by qNMR, read-out: MGL mutant ThermoFluor qKd (using qNMR conc.).
The mark [5] stands for this setting: ThermoFluor, compound concentration measured by qNMR, read-out: MGL mutant ThermoFluor qKd (μM) (using qNMR conc.).
[6] abbreviates: ThermoFluor concentration-response, read-out: MGL mutant ThermoFluor Kd.

The structures appear in SMILES notation. Substitutions are numbered along the chain they refer to. Like-named read-outs stand apart in the source and are kept apart here.

Regarding `O=C(c1ccc2c(cnn2-c2cccc(C(F)(F)F)c2)c1)N1CC(N2CCN(C(=O)c3nccs3)CC2)C1` [Cpd 1419], the IC50 (commonly the concentration that inhibits the measured activity by half) in assay [1] is < 5 nM. In addition, the Kd on mutant MGL (setting [2]) stood at 0.004 µM.
In the case of `N#Cc1ccc(N2CCC(C(=O)N3CC(N4CCN(C(=O)c5cscn5)CC4)C3)CC2)cc1` [Cpd 647], half-maximal inhibition in assay [1] (IC50) was put at 12700 nM. The Kd on mutant MGL (setting [2]) was > 31.2 µM.
In the same order, the values of `O=C(c1cscn1)N1CC(N2CCN(C(=O)c3cc4cc(Br)cnc4o3)CC2)C1` [Cpd 1449] are > 16700 nM and 3.19 µM.
As to `O=C(c1ccc2c(=O)c3ccccc3oc2c1)N1CC(N2CCN(C(=O)c3nccs3)CC2)C1` [Cpd 710], the half-maximal inhibitory concentration (IC50) in assay [1] worked out at 123 nM. Besides, the Kd on mutant MGL (setting [3]) worked out at 0.197 µM.
In assay [1], `Cc1nc2cc(C(=O)N3CC(N4CCN(C(=O)c5nccs5)CC4)C3)ccc2n1-c1ccc(C(F)(F)F)cc1` [Cpd 1215] had an IC50 of 216 nM. In addition, the Kd at mutant MGL (setting [4]) stood at 0.006 µM.
Molecule `O=C(c1cccnc1)c1c[nH]c2cc(C(=O)N3CC(N4CCN(C(=O)c5nccs5)CC4)C3)ccc12` [Cpd 950] came in with an IC50 in assay [1] of 1500 nM. Further, at mutant MGL (setting [4]), the Kd turned out to be 0.883 µM.
Regarding `NC(=O)c1cccc(-n2ccc3cc(C(=O)N4CC(N5CCN(C(=O)c6ccccc6)CC5)C4)ccc32)c1` [Cpd 594, 3-[5-({3-[4-(Phenylcarbonyl)piperazin-1-yl]azetidin-1-yl}carbonyl)-1H-indol-1-yl]benzamide], inhibition in assay [1] was half-maximal at 449 nM (IC50). Further, the Kd at mutant MGL (setting [5]) worked out at 0.743 µM.
Take `CN(C(=O)Cn1ccc2cc(C(=O)N3CC(N4CCN(C(=O)c5cscn5)CC4)C3)ccc21)c1ccccc1` [Cpd 1032]: half-maximal inhibition in assay [1] (IC50) required 3020 nM. At mutant MGL (setting [4]), the Kd was determined as 1.1 µM.
Turning to `O=C(c1cccc(CNc2ccccc2F)c1)N1CC(N2CCN(C(=O)c3nccs3)CC2)C1` [Cpd 1005], 237 nM corresponded to half-maximal inhibition in assay [1] (IC50). Further, the Kd at mutant MGL (setting [6]) turned out to be 0.083 µM.
Taken in the same sequence, the figures for `O=C(c1ccc2c(c1)[nH]c(=O)n2C1CCC(F)(F)CC1)N1CC(N2CCN(C(=O)c3cscn3)CC2)C1` [Cpd 945] were 1480 nM and 0.083 µM.
Take `O=C(c1ccc(-c2cccc(C(F)(F)F)c2)cc1)N1CC(N2CCN(C(=O)c3nccs3)CC2)C1` [Cpd 237, 1-(1,3-Thiazol-2-ylcarbonyl)-4-(1-{[3′-(trifluoromethyl)biphenyl-4-yl]carbonyl}azetidin-3-yl)piperazine]: in assay [1], the IC50 is < 5 nM. On mutant MGL (setting [2]), the Kd was 0.001 µM.
With `O=C(c1ccc(Oc2ccccc2Cl)nc1)N1CC(N2CCN(C(=O)c3cscn3)CC2)C1` [Cpd 811], the IC50 in assay [1] was found to be 2150 nM. Besides, the Kd at mutant MGL (setting [6]) stood at 3.33 µM.
For the molecule `O=C(c1ccc2nn(Cc3cccc(C(F)(F)F)c3)cc2c1)N1CC(N2CCN(C(=O)c3nccs3)CC2)C1` [Cpd 1039, 5-({3-[4-(1,3-Thiazol-2-ylcarbonyl)piperazin-1-yl]azetidin-1-yl}carbonyl)-2-[3-(trifluoromethyl)benzyl]-2H-indazole], in assay [1], half-maximal inhibition (IC50) was put at 5 nM. Also, on mutant MGL (setting [4]), the Kd stood at 0.007 µM.
Take `Cc1cc(-c2cccc(C(F)(F)F)c2)ccc1C(=O)N1CCN(C2CN(C(=O)c3nccs3)C2)CC1` [Cpd 1260]: the 50% inhibitory concentration (IC50) in assay [1] came to 862 nM. Also, at mutant MGL (setting [6]), the Kd stood at 0.221 µM.
As to `O=C(c1ccc2c(c1)ncn2CCC(F)(F)F)N1CC(N2CCN(C(=O)c3cscn3)CC2)C1` [Cpd 851], the IC50 in assay [1] stood at 7870 nM. Also, the Kd on mutant MGL (setting [4]) came to 0.883 µM.
Molecule `O=C(c1ccc2c(ccn2-c2cccnc2)c1)N1CC(N2CCN(C(=O)c3nccs3)CC2)C1` [Cpd 1192, 1-Pyridin-3-yl-5-({3-[4-(1,3-thiazol-2-ylcarbonyl)piperazin-1-yl]azetidin-1-yl}carbonyl)-1H-indole] showed a half-maximal inhibitory concentration (IC50) in assay [1] of 109 nM. Further, at mutant MGL (setting [3]), the Kd came to 0.035 µM.
In the case of `O=C(c1nc2cc(-c3cccnc3F)ccc2[nH]1)N1CC(N2CCN(C(=O)c3nccs3)CC2)C1` [Cpd 1476], the IC50 in assay [1] was > 16700 nM. The Kd at mutant MGL (setting [5]) worked out at 7.21 µM.
In the same order, the values of `O=C(CN1C(=O)c2ccccc2S1(=O)=O)N1CC(N2CCN(C(=O)c3nccs3)CC2)C1` [Cpd 1432] are > 16700 nM and > 28.4 µM.
Take `COc1c(C(=O)N2CC(N3CCN(C(=O)c4nccs4)CC3)C2)sc2cc(C(F)(F)F)ccc12` [Cpd 649, 1-(1-{[3-Methoxy-6-(trifluoromethyl)-1-benzothiophen-2-yl]carbonyl}azetidin-3-yl)-4-(1,3-thiazol-2-ylcarbonyl)piperazine]: in assay [1], the midpoint of inhibition, the IC50, lay at 6 nM. Moreover, the Kd at mutant MGL (setting [4]) is 0.001 µM.
`O=C(c1cc2ccc(C(F)(F)F)nc2o1)N1CCN(C2CN(C(=O)c3nccs3)C2)CC1` [Cpd 860] had an IC50 in assay [1] of 8820 nM. For the same molecule, the Kd on mutant MGL (setting [6]) was 1.76 µM.
Taken in the same sequence, the figures for `CCCCC/C=C\C/C=C\C/C=C\C/C=C\CCCC(=O)N1CC(N2CCN(C(=O)c3nccs3)CC2)C1` [Cpd 639] were 419 nM and 0.132 µM.
In the case of `Cc1cc(C(=O)N2CC(N3CCN(C(=O)c4nccs4)CC3)C2)ccc1Br` [Cpd 727], it took 219 nM to reach half-maximal inhibition in assay [1] (IC50). Moreover, the Kd on mutant MGL (setting [3]) stood at 0.251 µM.
With `Cc1ccc2c(C(F)(F)F)c(C(=O)N3CC(N4CCN(C(=O)c5cscn5)CC4)C3)sc2c1` [Cpd 712, 1-(1-{[6-Methyl-3-(trifluoromethyl)-1-benzothiophen-2-yl]carbonyl}azetidin-3-yl)-4-(1,3-thiazol-4-ylcarbonyl)piperazine], half-maximal inhibition in assay [1] (IC50) was put at 127 nM. Besides, at mutant MGL (setting [6]), the Kd was found to be 0.028 µM.
Molecule `O=C(c1ccccc1)N1CCN(C2CN(C(=O)c3ccc(-c4cccc(C(F)(F)F)c4)cc3Cl)C2)CC1` [Cpd 252, 1-(1-{[3-Chloro-3′-(trifluoromethyl)biphenyl-4-yl]carbonyl}azetidin-3-yl)-4-(phenylcarbonyl)piperazine] returned a concentration for half-maximal inhibition (IC50) in assay [1] of 80.8 nM. The Kd on mutant MGL (setting [2]) amounted to 0.05 µM.
Turning to `O=C(c1cccc(F)c1)N1CCN(C2CN(C(=O)c3ccc4c(ccn4-c4ccc(F)cc4)c3)C2)CC1` [Cpd 1424], inhibition in assay [1] was half-maximal at 75 nM (IC50). For the same molecule, the Kd at mutant MGL (setting [5]) is 0.124 µM.
In the case of `O=C(c1ccc2c(ccn2-c2ccc(F)cc2)c1)N1CC(N2CCN(C(=O)c3cnco3)CC2)C1` [Cpd 1429], in assay [1], the IC50 amounted to 36 nM. Further, the Kd on mutant MGL (setting [5]) stood at 0.097 µM.
With `O=C(c1ccc2c(c1)ncn2C1CCC(F)(F)CC1)N1CC(N2CCN(C(=O)c3nccs3)CC2)C1` [Cpd 759], the IC50 in assay [1] worked out at 579 nM. For the same molecule, at mutant MGL (setting [4]), the Kd came out at 0.037 µM.
Taken in the same sequence, the figures for `Cc1cc(C(=O)N2CC(N3CCN(C(=O)c4cscn4)CC3)C2)cc2ccn(-c3ccc(F)cc3)c12` [Cpd 1076] were 8 nM and 0.02 µM.
With `CN(C(=O)Cn1ccc2cc(C(=O)N3CC(N4CCN(C(=O)c5nccs5)CC4)C3)ccc21)c1ccccc1` [Cpd 1031], the IC50 in assay [1] is 111 nM. Also, the Kd at mutant MGL (setting [4]) turned out to be 0.134 µM.
In turn, `O=C(c1ccc2c(c1)[nH]c(=O)n2-c1ccc(F)cc1)N1CC(N2CCN(C(=O)c3cscn3)CC2)C1` [Cpd 940] displayed an IC50 in assay [1] of 2240 nM. Further, the Kd at mutant MGL (setting [6]) was determined as 0.259 µM.
As for `O=C(c1ccc(-c2ccccc2)cc1)N1CC(N2CCN(C(=O)c3ccon3)CC2)C1` [Cpd 1262], half-maximal inhibition in assay [1] (IC50) was put at 950 nM. Also, the Kd at mutant MGL (setting [2]) turned out to be 0.278 µM.
As to `O=C(c1cccc(-c2ccc(C(F)(F)F)cc2)c1)N1CC(N2CCN(C(=O)c3cscn3)CC2)C1` [Cpd 1278], inhibition in assay [1] was half-maximal at 1860 nM (IC50). Besides, at mutant MGL (setting [6]), the Kd stood at 5.19 µM.
For `O=C(c1ccc(-c2ccccc2)cc1)N1CCN(C2CN(C(=O)c3cscn3)C2)C2(CC2)C1` [Cpd 1286], in assay [1], the midpoint of inhibition, the IC50, lay at 2420 nM. For the same molecule, the Kd on mutant MGL (setting [2]) was 0.032 µM.
In assay [1], `O=C(c1nccs1)N1CCN(C2CN(C(=O)c3cccc4oc(-c5cccnc5)nc34)C2)CC1` [Cpd 1251] yielded an IC50 of 684 nM. Further, the Kd on mutant MGL (setting [2]) amounted to 0.146 µM.
Consider `Cc1nc2cc(C(=O)N3CC(N4CCN(C(=O)c5nccs5)CC4)C3)ccc2s1` [Cpd 783], for which, in assay [1], the IC50 is 1090 nM. The Kd on mutant MGL (setting [3]) worked out at 0.732 µM.
For the molecule `Cc1nc2cc(C(=O)N3CC(N4CCN(C(=O)c5nccs5)CC4)C3)ccc2n1C1CCC(F)(F)CC1` [Cpd 798], in assay [1], the IC50 stood at 1630 nM. Besides, the Kd on mutant MGL (setting [4]) amounted to 0.004 µM.
Molecule `O=C(c1ccc2nn(CCc3ccc(F)cc3)cc2c1)N1CC(N2CCN(C(=O)c3nccs3)CC2)C1` [Cpd 1050, 2-[2-(4-Fluorophenyl)ethyl]-5-({3-[4-(1,3-thiazol-2-ylcarbonyl)piperazin-1-yl]azetidin-1-yl}carbonyl)-2H-indazole] came in with an IC50 in assay [1] of 24 nM. On mutant MGL (setting [4]), the Kd was 0.085 µM.
In turn, `O=C(c1ccc(-n2cnc3ccccc32)cc1)N1CC(N2CCN(C(=O)c3cscn3)CC2)C1` [Cpd 1293] registered an IC50 in assay [1] of 3170 nM. Further, at mutant MGL (setting [6]), the Kd amounted to 1.67 µM.
In the same order, the values of `O=C(c1ccc(Oc2ccc(Cl)cn2)cc1)N1CC(N2CCN(C(=O)c3cscn3)CC2)C1` [Cpd 757] are 530 nM and 0.781 µM.
Taken in the same sequence, the figures for `COc1ccc2c(C)c(C(=O)N3CC(N4CCN(C(=O)c5nccs5)CC4)C3)oc2c1` [Cpd 721] were 173 nM and 1.14 µM.
Taken in the same sequence, the figures for `O=C(c1ccc2c(c1)[nH]c(=O)n2-c1ccc(C(F)(F)F)cc1)N1CC(N2CCN(C(=O)c3nccs3)CC2)C1` [Cpd 936] were 13 nM and 0.012 µM.
